Measured values from a compilation of properties of binary mixtures (doi:10.1021/acs.jpcb.7b01654).

Test: xn = mol fraction of the nth substance listed
Conditions: 100 kPa

CCCCCCCCCCCC[n+]1ccn(C)c1.O=S(=O)([N-]S(=O)(=O)C(F)(F)F)C(F)(F)F + CC[n+]1ccn(C)c1.O=S(=O)([N-]S(=O)(=O)C(F)(F)F)C(F)(F)F
viscosity [mPa·s]
Conditions | 293 K | 298 K | 303 K | 308 K | 313 K | 318 K | 323 K | 328 K | 333 K
x1 = 0.01 | 36.2 | 29.4 | 24.3 | 20.5 | 17.6 | 15.26 | 13.19 | 11.69 | 10.4
x1 = 0.04 | 37.9 | 30.8 | 25.5 | 21.5 | 18.4 | 15.96 | 13.82 | – | 10.81
x1 = 0.08 | 41.4 | 33.5 | 27.6 | 23.2 | 19.8 | 17 | – | 12.89 | 11.37
x1 = 0.16 | 47.6 | – | – | 26.1 | 22.1 | 19 | 16 | 14.06 | –
x1 = 0.24 | 57.4 | 45.7 | – | 30.7 | 25.7 | 21.9 | 18.6 | 16.17 | 14.13
x1 = 0.32 | 69.1 | 54.2 | 43.6 | 35.6 | 29.6 | 24.8 | – | 18 | 15.5
x1 = 0.43 | 85.1 | 66 | 52.4 | 42.4 | 34.8 | 28.9 | 23.8 | 20.4 | 17.6
x1 = 0.52 | 94.7 | 73.2 | 57.7 | 46.6 | 38.3 | 31.7 | 26.1 | 22.2 | 19.1
x1 = 0.63 | 116 | 88.7 | 69.3 | 55.3 | 44.8 | 36.9 | 30.3 | 25.5 | 21.7
x1 = 0.74 | 137 | 104 | 80.6 | – | 51.3 | 42 | – | 28.7 | 24.1
x1 = 0.87 | 158 | 119 | 91.7 | 71.9 | 57.4 | 46.5 | 37.4 | 31.1 | 26.1
x1 = 0.92 | 182 | 135 | 102 | 79 | 62.1 | 49.8 | 40.2 | 33 | –
x1 = 0.96 | – | 149 | 114 | – | – | 56.2 | 45.5 | 37.4 | 31.2
x1 = 1 | 193 | 143 | – | 84 | 66.2 | 53 | 42.65 | 34.9 | 28.87
x2 = 0.01 | 199 | 149 | 113 | 88.4 | 70 | 56.3 | – | 37.5 | 31.3

CC[n+]1ccn(C)c1.O=S(=O)([N-]S(=O)(=O)C(F)(F)F)C(F)(F)F + CCCCCCCCCCCC[n+]1ccn(C)c1.O=S(=O)([N-]S(=O)(=O)C(F)(F)F)C(F)(F)F
x2 = 0
Conditions | viscosity [mPa·s]
283 K | 56.8
288 K | 44.6
298 K | 29.7
303 K | 24.8
308 K | 21
318 K | 15.57
323 K | 13.28
